# Laboratory results published in patent publication EP3720857B1, “2-OXO-5H-CHROMENO[4,3-B]PYRIDINES FOR USE IN THE TREATMENT OF HEPATITIS B” (Galapagos NV, priority 2017, dated 2019).
# Test system: hepatitis virus B (HBV) infection
# Experiment: HepG2 NTCP assay (HBcAg staining as marker of HBV infection)
# Format: cell-based
# Conditions: HepG2-NTCP cells infected with HBV, HBV core antigen (HBcAg) as marker of infection
# Summary of the method: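 HepG2-NTCP cells were infected with HBV (4% PEG, 1% DMSO) in the presence of compound overnight, then re-dosed and incubated 5 days at 37 °C. HBcAg immunofluorescence was imaged, with DAPI nuclei count taken as toxicity. Ten-point 1/3 dilutions gave % inhibition against 0.2% DMSO vehicle and 100 nM Myrcludex B, with dose-response curves fitted.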
row,IC50 [nM],Structure (SMILES)
1,0.001 to 1,"CCC1Oc2cc(OCCCOC)c(F)cc2-c2c1cc(C(=O)O)c(=O)n2C1CC1 (stereo not drawn) [Compound 16, 1-cyclopropyl-5-ethyl-9-fluoro-8-(3-methoxypropoxy) -2-oxo-5H-chromeno[4,3-b]pyridine-3-carboxylic acid]"
2,0.001 to 1,"COCCCOc1cc2c(cc1F)-c1c(cc(C(=O)O)c(=O)n1C1CC1)C(C(C)C)O2 (stereo not drawn) [Compound 1, 1-cyclopropyl-9-fluoro-5-isopropyl-8-(3-methoxypropoxy)-2-oxo-5H-chromeno[4,3-b]pyridine-3-carboxylic acid]"
3,0.001 to 1,"COCCCOc1cc2c(cc1Cl)-c1c(cc(C(=O)O)c(=O)n1C1CC1)[C@H](C1(C)COC1)O2 [Compound 46, (5R)-9-chloro-1-cyclopropyl-8-(3-methoxypropoxy)-5-(3-methyloxetan-3-yl)-2-oxo-5H-chromeno[4,3-b]pyridine-3-carboxylic acid]"
4,0.001 to 1,"COCCCOc1cc2c(cc1Cl)-c1c(cc(C(=O)O)c(=O)n1C1CC1)C(C(C)(C)COC)O2 (stereo not drawn) [Compound 19, 9-chloro-1-cyclopropyl-5-(2-methoxy-1,1-dimethyl-ethyl)-8-(3-methoxypropoxy) -2-oxo-5H-chromeno[4,3-b]pyridine-3-carboxylic acid]"
5,0.001 to 1,"COCCCOc1cc2c(cc1Cl)-c1c(cc(C(=O)O)c(=O)n1C1CC1)CO2 [Compound 6, 9-chloro-1-cyclopropyl-8-(3-methoxypropoxy) -2-oxo-5H-chromeno[4,3-b]pyridine-3-carboxylic acid]"
6,0.001 to 1,"COCCCOc1cc2c(cc1F)-c1c(cc(C(=O)O)c(=O)n1C1CC1)[C@H](C(C)C)O2 [Compound 44, (5S)-1-cyclopropyl-9-fluoro-5-isopropyl-8-(3-methoxypropoxy)-2-oxo-5H-chromeno[4,3-b]pyridine-3-carboxylic acid]"
